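Following 48 hours of exposure in 96-well plates, responses at five concentrations were used to interpolate endpoints linearly. Abbreviation: GI50, concentration required for 50% inhibition of growth.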 Calls of active or inactive are those of the source. No stated cut-off is given here; in the data, active = GI50 up to about 1.1 µM and inactive = higher.
Experiments:
Experiment in all cases: NCI-60 cell line screen, 48 h
[1] = tested on: 786-0
[2] = tested on: ACHN
[3] = tested on: EKVX
[4] = tested on: HL-60
[5] = tested on: HOP-62
[6] = tested on: K562
[7] = tested on: M14
[8] = tested on: MOLT-4
[9] = tested on: RXF 393
[10] = tested on: SK-OV-3
[11] = tested on: SNB-75
[12] = tested on: SW-620
[13] = tested on: TK-10
[14] = tested on: U-251
[15] = tested on: UO-31
[16] = tested on: NCI-H522
[17] = tested on: HOP-92

Measured: GI50

CN(C)CCNC(=O)c1ccccc1Nc1c(Cl)cccc1Cl
inactive: [1] 4.62 µM | [2] 8.75 µM | [3] 8.2 µM | [4] 11 µM | [5] 13.7 µM | [6] 13.4 µM | [7] 15.4 µM | [8] 13.1 µM | [9] 1.69 µM | [10] 13.7 µM | [11] 2.07 µM | [12] 14.1 µM | [13] 8.13 µM | [14] 11.6 µM | [15] 4.52 µM

C=CCN(N=O)C(=O)N(CCCC(NC(C)=O)C(=O)NCc1ccccc1)Cc1ccccc1 (stereo not drawn)
inactive: [1] 80.5 µM | [2] 54.7 µM | [3] 58.2 µM | [4] 19.6 µM | [5] > 100 µM | [6] 37 µM | [7] 38.4 µM | [8] 16.9 µM | [16] 21.4 µM | [9] 42.2 µM | [10] > 100 µM | [11] 39 µM | [12] 61.4 µM | [13] 87.1 µM | [14] 78.7 µM | [15] 33.1 µM

COc1ccccc1NC(=O)CC(=O)NNCC(=O)Nc1nnc(-c2ccccc2)o1
inactive: [1] > 100 µM | [2] > 100 µM | [3] > 100 µM | [5] > 100 µM | [6] > 100 µM | [7] > 100 µM | [8] > 100 µM | [16] > 100 µM | [10] > 100 µM | [11] > 100 µM | [12] > 100 µM | [13] > 100 µM | [14] > 100 µM | [15] > 100 µM

C=CCN(N=O)C(=O)N(CCC)CCCC(NC(C)=O)C(=O)NCc1ccccc1 (stereo not drawn)
inactive: [1] > 100 µM | [2] > 100 µM | [3] > 100 µM | [4] > 100 µM | [5] > 100 µM | [6] > 100 µM | [7] > 100 µM | [8] > 100 µM | [16] > 100 µM | [9] > 100 µM | [10] > 100 µM | [11] > 100 µM | [12] > 100 µM | [13] > 100 µM | [14] > 100 µM | [15] > 100 µM

Cc1ccccc1NC(=O)Cc1nc2ccccc2s1
inactive: [1] 17.7 µM | [2] 15.4 µM | [3] 19.7 µM | [4] 9.44 µM | [5] > 10 µM | [6] 18.3 µM | [7] 12.6 µM | [8] 17.9 µM | [16] 15.3 µM | [9] 18.9 µM | [10] 24.4 µM | [11] 61 µM | [12] 19.8 µM | [13] 23.8 µM | [14] 11.8 µM | [15] 11.5 µM

c1ccc2c(c1)Sc1ccccc1N2C1CN2CCC1CC2 (stereo not drawn)
inactive: [1] 13 µM | [2] 16.9 µM | [3] 13 µM | [4] 14.9 µM | [5] 12.9 µM | [6] 13.7 µM | [8] 12.8 µM | [16] 18.8 µM | [10] 19.5 µM | [11] 6 µM | [12] 16.4 µM | [13] 14 µM | [14] 15.6 µM | [15] 16.7 µM

Cc1cc(Cl)ccc1NC(=O)CCCC(=O)C1CCC/C1=N\NC(=O)CC#N (stereo not drawn)
inactive: [1] > 100 µM | [2] > 100 µM | [3] > 100 µM | [4] > 100 µM | [17] > 100 µM | [6] > 100 µM | [7] > 100 µM | [8] > 100 µM | [16] > 100 µM | [10] > 100 µM | [11] > 100 µM | [12] > 100 µM | [13] > 100 µM | [14] > 100 µM | [15] > 100 µM

Nc1ccc(C(=O)N/C(=C\c2cccc([N+](=O)[O-])c2)c2nc3cc(Cl)ccc3[nH]2)cc1
inactive: [1] 92 µM | [2] > 100 µM | [3] > 100 µM | [17] 24.4 µM | [6] > 100 µM | [7] 74.3 µM | [8] > 100 µM | [16] > 100 µM | [9] > 100 µM | [10] > 100 µM | [12] > 100 µM | [13] > 100 µM | [14] > 100 µM | [15] 36.1 µM

CCOC(=O)C(=O)Nc1c(C)cccc1C(C)C
inactive: [1] > 100 µM | [2] > 100 µM | [3] > 100 µM | [4] > 100 µM | [5] > 100 µM | [17] > 100 µM | [6] > 100 µM | [7] > 100 µM | [8] > 100 µM | [16] > 100 µM | [10] > 100 µM | [11] 51.2 µM | [12] > 100 µM | [13] > 100 µM | [14] > 100 µM | [15] > 100 µM

CSc1nc(-c2ccccc2)nc(N2CCOCC2)[s+]1
inactive: [1] > 100 µM | [2] > 100 µM | [3] > 100 µM | [4] 42.8 µM | [5] > 100 µM | [6] 37.6 µM | [7] > 100 µM | [8] 26.8 µM | [16] 32.8 µM | [9] 21.3 µM | [10] > 100 µM | [11] > 100 µM | [12] > 100 µM | [13] > 100 µM | [14] 92.7 µM | [15] > 100 µM

CCOc1ccc(/N=C/c2cccc3cccnc23)cc1
inactive: [1] > 100 µM | [2] > 100 µM | [3] > 100 µM | [4] 25.6 µM | [5] > 100 µM | [17] > 100 µM | [6] 20 µM | [7] 44.7 µM | [8] 45.3 µM | [9] > 100 µM | [10] > 100 µM | [11] > 100 µM | [12] 50.5 µM | [13] > 100 µM | [14] > 100 µM

CC(=O)NC(ON1C(=O)COc2ccccc21)C(Cl)(Cl)Cl (stereo not drawn)
inactive: [1] > 100 µM | [2] > 100 µM | [4] > 100 µM | [5] > 100 µM | [17] > 100 µM | [6] > 100 µM | [7] > 100 µM | [8] > 100 µM | [16] > 100 µM | [10] > 100 µM | [11] > 100 µM | [12] > 100 µM | [13] > 100 µM | [14] > 100 µM | [15] > 100 µM

COC(=O)/C(=N\NC(N)=O)C(C(=O)C=C(C)C)C(=O)C(=O)Nc1ccc(Cl)c(Cl)c1 (stereo not drawn)
inactive: [1] > 100 µM | [2] > 100 µM | [3] > 100 µM | [4] > 100 µM | [5] > 100 µM | [6] > 100 µM | [7] > 100 µM | [8] > 100 µM | [16] > 100 µM | [9] > 100 µM | [10] > 100 µM | [11] > 100 µM | [12] > 100 µM | [13] > 100 µM | [14] > 100 µM | [15] > 100 µM

From ChEMBL document CHEMBL1201862, “PubChem BioAssay data set” (2004)
